We go through 2 molecules from patent US20200308162A1, “DRUGS AND COMPOSITIONS FOR OCULAR DELIVERY” (Graybug Vision, Inc., priority 2017, published 2020).

One data set deals with monkey eyes. Conditions: topical eye drops, cited from earlier work.
A further data set relates to rabbit eyes. The following applies: topical eye drops, cited from earlier work.
For data set [1] the following is noted: carboxylic acid; cited from earlier work.
Another data set has as its system glaucomatous monkey eyes. The following applies: ointment, highest concentration of 2.5% ECA, four glaucomatous monkey eyes; cited from earlier work.
The nature of data set [2]: Drug solubility in water, DMSO and DCM (HPLC of filtered supernatant). Conditions: thermodynamic from solid.
Method: For each test, approximately 5-10 mg was transferred to a 10 mL glass vial. Aqueous or organic solvent was added to each vial to achieve an overall concentration of 50 mg/mL. After vortexing aggressively for 2-3 minutes and sonicating in a bath sonicator for 5 minutes, undissolved drug was spun down at 1200 rpm for 5 minutes to generate a pellet. The supernatant was collected and filtered through a 0.2 μm nylon syringe filter into HPLC vials for drug content analysis. Drug concentration was determined by comparing against a standard calibration curve.
Data set [3] in a line: Percent drug loading of ethacrynic acid prodrug microparticles (RP-HPLC). Format: physicochemical. How it is done:
To determine the percent drug loading (% DL), 10 mg of particles was weighed into a glass scintillation vial and dissolved with 10 mL of MeCN:water (1:1, v/v). The solution was filtered through a 0.2 μm nylon syringe filter and the drug content was determined by RP-HPLC referenced against a standard calibration curve.

Data set [4] in a line: Degradation of ECA prodrugs heated at 60° C. in water/acetonitrile (HPLC-MS). Conditions: 60° C. in 50/50 water (0.1% FA)/acetonitrile (0.1% FA). Format: physicochemical. How it is done:
Prodrugs of ECA were challenged by heating at 60° C. in 50/50 water (0.1% FA)/acetonitrile (0.1% FA), and the degradants were separated using a reverse phase HPLC equipped with a C-18 bonded stationary phase. The identification of various peaks was accomplished by mass spectrometry detector and retention time comparison with available standards.
Chromatographic separation of ethacrynic acid parent compounds and their PLA conjugated derivatives was achieved using an Agilent 1260 Infinity II LCMS equipped with an Waters Symmetry C18 column (5 μm, 4.6 mm×150 mm) as the stationary phase and acetonitrile/water as the mobile phase. The gradient separation method is outlined in Table 4. The analysis was performed at an injection volume of 10 μL, a flow rate of 1.2 mL/min and a detection wavelength of 230 nm at 25° C. Retention times for ethacrynic acid and PLA-conjugated compounds are illustrated in Table 5.
Table 6 illustrates the calculated mass and structure of all the individual intermediates and the parent compound. Calculated mass ions were extracted using a MS G6135B detector with positive and negative polarity acquisition between mass 100-1000, fragmentation at 250, gain at 1, threshold of 150, and speed of 2080 u/sec. Extracted ions and polarity for individual mass spectometry peak identification is outlined in Table 7.

A short description of data set [5]: In vitro stability of ethacrynic acid prodrugs at 37° C. It counts as physicochemical. The following applies: 37° C. The source says: As evidenced, both prodrugs of ethacrynic acid degrade steadily over the 6 day period. As the ester linkages are hydrolyzed, the parent compound is generated in a linear rate. The rate of degradation to the parent compound is faster for the shorter […] in comparison to the degradation kinetics for ethacrynic acid-PLA(n=4)-ethyl ester (1).
Approximately 94% of the ECA-PLA(n=4) prodrug (1) has been converted to free ECA by day 6, in comparison to only 56% for ECA-PLA(n=6) (25). Also, by day 6, all the initial prodrug has been degraded into intermediates and free drug respectively.

Data set [6] can be described thus: Mean size of ethacrynic acid prodrug encapsulated microparticles. It counts as physicochemical.
Data set [7] is described as follows: Drug release kinetics of Timolol and ethacrynic acid prodrugs from polymer microparticles. Format: physicochemical. How it is done:
The effect of polymer composition including monomer ratio and molecular weight, polymer end-groups (ester or acid), inherent viscosity and polymer blend ratios on particle degradation and drug release kinetics of Timolol-O-ethyl fumurate (17) was evaluated and is illustrated in FIG. 5. The rate of particle degradation was slowed and drug release was prolonged when the mole % of DL-lactide over glycolide was increased. By incorporating polymers with different monomer ratios (i.e., PLA, PLGA8515, PLGA525, PLGA5050 wherein 8515 refers to 85% DL-lactide and 15% glycolide) into the particles, it is possible to fine-tune the degradation rate of the particles to achieve a linear rate of drug release from the particles to minimize burst or lag and to extend the duration of release. […] The 78/22(PLA 5A/PLGA8515 4.5A) and 65/20/15(PLA 4A/PLGA6515 4.5A/PLGA5050 4A) polymer blends generated ideal particles for a 3-6 month linear release formulation. […] The rate of release was independent of the salt form. […] Thus, release rate is not solely dictated by the physicochemical properties of the linker, but rather must be attributed to a combination of parameters that may include linker type and site of linker conjugation.
FIG. 6 illustrates the release kinetics of ethacrynic acid-PLA(n=4)-ethyl ester (1) from PLGA microparticles. The drug was released over a period of approximately 66 days.
FIG. 8 and FIG. 9 illustrate the release kinetics of ethacrynic acid-PLA(n=4)-ethyl ester (1) and ethacrynic acid-PLA(n=6)-ethyl ester (25), respectively, from PLGA microparticles. The drug was released from a number of formulations over a period of greater than 90 days. […] Particles generated with 1% PVA in PBS was compared against particles generated in 1% PVA in water (FIG. 10).
Based upon these initial formulation screens, the formulation comprising of 1% mPEG-PLGA and 99% PLA100 4.5A:PLGA8515 5A (77:22) was selected as the lead formulation for ECA-PLA(n=4) (1) and ECA-PLA(n=6) (25) prodrugs. The particles were prepared in 1% PVA in water. The release profiles for the lead ECA-PLA(n=4) (1) and ECA-PLA(=6) (25) particle formulations are illustrated in FIG. 11.

Where [8] appears, read: PLA100 4.5A + 1% PEG-PLGA5050, polymer 200 mg/mL.
The mark [9] stands for this setting: PLA100 4.5A + PLGA7525 6E (69:30) + 1% PEG-PLGA5050, polymer 200 mg/mL.
Setting [10] is: PLA100 4.5A + PLGA8515 5A (77:22) + 1% PEG-PLGA5050, polymer 200 mg/mL.
[11] abbreviates: PLA100 4.5A + PLGA8515 5A + PLGA5050 4A (64:20:15) + 1% PEG-PLGA5050, polymer 200 mg/mL.
Setting [12] is: PLA100 4.5A + PLGA8515 5A + PLGA5050 4A (64:30:5) + 1% PEG-PLGA5050, polymer 200 mg/mL.
Where [13] appears, read: PLGA7525 4A + 1% PEG-PLGA5050, polymer 200 mg/mL.

Structures are written as SMILES.

In the case of `C=C(CC)C(=O)c1ccc(OCC(=O)O)c(Cl)c1Cl` [ECA, ethacrynic acid], the ocular adverse effects entry was “corneal edema and moderate diffuse superficial corneal erosion” in the data set on monkey eyes (especially at higher doses); “corneal edema and moderate diffuse superficial corneal erosion” in the data set with rabbit eyes (especially at higher doses); “mild eyelid edema, conjunctival hyperemia, and discharge” in the data set on glaucomatous monkey eyes. Moreover, the “effect on IOP” value with monkey eyes (monkey eyes) and with rabbit eyes (rabbit eyes) was “effective in decreasing IOP” each time. In addition, in data set [1], the pka entry is “approximately 2.8”.

As to `C=C(CC)C(=O)c1ccc(OCC(=O)O[C@@H](C)C(=O)O[C@@H](C)C(=O)O[C@@H](C)C(=O)O[C@@H](C)C(=O)O[C@@H](C)C(=O)O[C@@H](C)C(=O)OCC)c(Cl)c1Cl` [Compound 25, (S)-2-((S)-2-[(S)-2-((S)-2-(2-[2,3-Dichloro-4-(2-methylene-butyryl)-phenoxy]-acetoxy)-propionyloxy)-propionyloxy]-propionyloxy)-propionic acid (S)-1-((S)-1-ethoxycarbonyl-ethoxycarbonyl)-ethyl ester], the solubility is above 50 mg/mL in data set [2] (DMSO, organic solvent or mixture) and below 0.1 mg/mL in data set [2] (water). Also, the “% Drug loading” value in [3] (setting [8]) was 13.83%; in data set [3] (setting [9]), 11.56%; in data set [3] (setting [10]), 12.29%; in data set [3] (setting [11]), 14.22%; in data set [3] (setting [12]) it was 13.53%; in [3] (setting [13]) it was 12.43%. In addition, the “% Drug loading” value is on record as 13.5% in data set [3] (theoretical loading 15), 18.1% in [3] (theoretical loading 20), 27.4% in data set [3] (theoretical loading 30) and 38.2% in data set [3] (theoretical loading 40). Besides, the “% Encapsulation Efficiency” value worked out at 90.0% in [3] (theoretical loading 15), 90.5% in data set [3] (theoretical loading 20), 91.3% in data set [3] (theoretical loading 30) and 95.5% in [3] (theoretical loading 40). For the same molecule, in data set [4], the hydrolysis products result is reported as “hydrolyze into five intermediates”. Also, in data set [5] (6 days), the “rate of degradation of the prodrug” value was “degraded slightly slower”. For the same molecule, the “prodrug converted to free ECA by day 6” value in [5] (day 6) is reported as 56%. For the same molecule, the Mean size in data set [6] (setting [8]) came out at 27.62 um; in [6] (setting [9]), 26.95 um; in [6] (setting [10]) it was 27.88 um; in data set [6] (setting [11]) it was 26.59 um; in data set [6] (setting [12]), 26.27 um; in data set [6] (setting [13]), 26.19 um. Also, in data set [7] (1% mPEG-PLGA and 99% PLA100 4.5A:PLGA8515 5A (77:22), prepared in 1% PVA in water, FIG. 11), the “in vitro release profile of lead microparticle formulation” value is “much more linear release profile”. Moreover, the “rate of drug release as a function of drug loading” value in [7] (microparticles with 13.5, 18.1, 27.4 and 38.2 % DL, FIG. 4) is listed as “rate of drug release increased with increasing drug loading”.

As a reminder, the solubility is the concentration that dissolves in the medium under given conditions.
